Results on three compounds are retold here after publication doi:10.1101/2024.08.19.608619, “Discovery of potent SARS-CoV-2 nsp3 macrodomain inhibitors uncovers lack of translation to cellular antiviral response” (bioRxiv, 2024).

Converted amounts (≈) assume the structure as drawn. Where two headings read alike, the source gives them in different places.

The test system of data set [1] is SARS-CoV-2, isolate USA-WA1/2020. As to the kind of experiment: microbe, parasite or virus in culture. Format: cell-based. Conditions: HeLa-ACE2 SARS-CoV-2 antiviral effect without P-gp inhibitor; for perc_max_measured: maximum measured response of dose series; for perc_min_measured: minimum measured response of dose series; for EC50: read-out: ec50; for EC90: read-out: ec90.

Data set [2] in a line: Hepatic microsomal stability, HLM. It counts as in vitro ADME, human. Conditions: In vitro human liver microsomal stability; for perc_remaining_no_cofactor: no cofactor. For orientation: Microsomes from liver hold many membrane-bound enzymes, among them those of drug oxidation.
Data set [3] is described as follows: Hepatic microsomal stability, MLM. Format: in vitro ADME. As to conditions: In vitro mouse liver microsomal stability; for perc_remaining_no_cofactor: no cofactor.
For a further data set, the system named is HeLa-ACE2 cells. Conditions: for perc_max_measured: highest measured response of the dose series; for perc_min_measured: lowest measured response of the dose series.
The nature of another data set: LogD. As to conditions: pH 7.4; In vitro LogD.
The next data set can be described thus: in vitro. As to conditions: human, hela-ace2 cells, 50.0.
Data set [4] can be described thus: In vitro kinetic solubility. Conditions: In vitro kinetic solubility, ph 7.4.
Data set [5] is described as follows: Permeability Papp (AB) MDR1/MDCKII. As to conditions: In vitro MDR1-MDCKII permeability; for papp_a_to_b_mean: A to B; for perc_recovery_a_to_b_mean: recovery A to B.
[6] abbreviates: protocol HeLa-ACE2 cytotoxicity.

As to `CC(C)(C)[C@H](Nc1ncnc2[nH]c(-c3cnn(CC(N)=O)c3)cc12)c1ccc2c(c1)OCCO2` (single isomer, unassigned) [ASAP-0012330], in data set [1], the perc_max_measured was found to be 108.484%; the perc_min_measured was 91.129%; the EC50 (commonly the concentration needed to bring the measured effect to its halfway point) is over 20 µM; the 90% effect concentration (EC90) (as a rule, the concentration at which the effect reaches the 90% level) is over 20 µM. Moreover, in data set [2], the clint was 153.0 µL/min/mg, the perc_remaining worked out at 9.0%, the t_half is on record as 10.9 min and the perc_remaining_no_cofactor is listed as 100.0%. For the same compound, in data set [3], the clint was 44.0 µL/min/mg, the perc_remaining is listed as 48.0%, the t_half came to 38.3 min and the perc_remaining_no_cofactor is on record as 105.0%. Further, in the data set with HeLa-ACE2 cells (HeLa-ACE2 cytotoxicity), the CC50 (in general, the concentration giving 50% cytotoxicity) is over 20 µM; the cc10 was over 20.0 µM; the perc_max_measured is given as 98.779%; the perc_min_measured stood at 88.572%. Moreover, the logd in “LogD” is on record as 3.0. Also, in “in vitro”, the 50% cytotoxic concentration (CC50) at 24 h was over 20 µM. Besides, the solubility_mean in data set [4] is 89 µM (≈ 41.1 µg/mL). Also, in data set [5] (no inhibitor), the papp_a_to_b_mean turned out to be 0.364 ×10⁻⁶ cm/s and the perc_recovery_a_to_b_mean is listed as 67.4%.
In the case of `CNC(=O)c1cccc(-c2cc3c(N[C@H](c4ccc5c(c4)S(=O)(=O)CCC5)C(C)C)ncnc3[nH]2)c1` (single isomer, unassigned) [ASAP-0012338], in data set [1], the perc_max_measured is 112.086%, the perc_min_measured is on record as 84.591%, the EC50 is over 20 µM and the EC90 is over 20 µM. In data set [2], the clint is 746.0 µL/min/mg, the perc_remaining is recorded as 0.0%, the t_half came to 2.2 min and the perc_remaining_no_cofactor came to 99.0%. For the same compound, in data set [3], the clint is 197.0 µL/min/mg, the perc_remaining came out at 4.0%, the t_half turned out to be 8.5 min and the perc_remaining_no_cofactor was determined as 106.0%. In the data set on HeLa-ACE2 cells (setting [6]), this compound yielded a CC50 of over 20 µM, a cc10 of over 20.0 µM, a perc_max_measured of 103.266% and a perc_min_measured of 80.243%. Moreover, the logd in the data set “LogD” was 3.8. In addition, in the data set “in vitro”, the 50% cytotoxic concentration (CC50) at 24 h was over 20 µM. The solubility_mean in data set [4] came out at 13 µM (≈ 6.55 µg/mL). In data set [5] (no inhibitor), this compound registered a papp_a_to_b_mean of 0.502 ×10⁻⁶ cm/s and a perc_recovery_a_to_b_mean of 61.5%.
With `CCNC(=O)c1cc2c(N[C@@H](c3ccc4c(c3)S(=O)(=O)NCC4)C(C)C)ncnc2[nH]1` [ASAP-0011076], in data set [1], the perc_max_measured was 101.15%, the perc_min_measured is reported as 78.382%, the concentration for a half-maximal effect (EC50) was over 20 µM and the 90% effect concentration (EC90) is over 20 µM. Also, in data set [2], the clint was determined as 85.0 µL/min/mg, the perc_remaining was 24.0%, the t_half was found to be 19.7 min and the perc_remaining_no_cofactor came out at 107.0%. In addition, in data set [3], the clint was determined as 45.0 µL/min/mg, the perc_remaining is reported as 49.0%, the t_half was 36.8 min and the perc_remaining_no_cofactor is 101.0%. Besides, in the data set with HeLa-ACE2 cells (HeLa-ACE2 cytotoxicity), the cytotoxic concentration (CC50) is over 20 µM, the cc10 was over 20.0 µM, the perc_max_measured turned out to be 99.412% and the perc_min_measured came out at 92.285%. In “LogD”, this compound had a logd of 2.6. In “in vitro”, this compound had a CC50 at 24 h of over 20 µM. Also, the solubility_mean in data set [4] came to 344 µM (≈ 152 µg/mL). In data set [5] (mean), this compound displayed a papp_a_to_b_mean of 1.96 ×10⁻⁶ cm/s and a perc_recovery_a_to_b_mean of 97.7%.
